Source: PubChem BioAssay (NCI)
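Tested at 5 concentrations; 48 h exposure; 96-well plates; endpoints linearly interpolated, else capped at highest concentration. TGI: total growth inhibition.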

Legend:
Test in all cases: growth of human tumour cells (NCI), 48 h
COLO 205 colon = system: COLO 205 colon
SF-268 CNS = system: SF-268 CNS
SK-MEL-28 melanoma = system: SK-MEL-28 melanoma
DMS 273 small cell lung = system: DMS 273 small cell lung
A549 NSCLC = system: A549 NSCLC
EKVX NSCLC = system: EKVX NSCLC
HCT-116 colon = system: HCT-116 colon
SK-MEL-5 melanoma = system: SK-MEL-5 melanoma
KM12 colon = system: KM12 colon
RPMI-8226 leukemia = system: RPMI-8226 leukemia
SN12C renal = system: SN12C renal
K-562 leukemia = system: K-562 leukemia
LXFL 529 NSCLC = system: LXFL 529 NSCLC
786-0 renal = system: 786-0 renal
OVCAR-3 ovarian = system: OVCAR-3 ovarian
HOP-92 NSCLC = system: HOP-92 NSCLC
UACC-257 melanoma = system: UACC-257 melanoma
OVCAR-4 ovarian = system: OVCAR-4 ovarian
A498 renal = system: A498 renal
HCC-2998 colon = system: HCC-2998 colon
SW-620 colon = system: SW-620 colon
ACHN renal = system: ACHN renal
NCI-H522 lung = system: NCI-H522 lung
HOP-18 NSCLC = system: HOP-18 NSCLC
LOX IMVI melanoma = system: LOX IMVI melanoma
CAKI-1 renal = system: CAKI-1 renal
SK-MEL-2 melanoma = system: SK-MEL-2 melanoma
CCRF-CEM leukemia = system: CCRF-CEM leukemia
DMS 114 small cell lung = system: DMS 114 small cell lung
HCT-15 colon = system: HCT-15 colon
HOP-62 NSCLC = system: HOP-62 NSCLC
UO-31 renal = system: UO-31 renal
XF 498 CNS = system: XF 498 CNS
KM20L2 colon = system: KM20L2 colon
SNB-19 CNS = system: SNB-19 CNS
TK-10 renal = system: TK-10 renal
HT29 colon = system: HT29 colon
NCI-H226 lung = system: NCI-H226 lung
IGROV1 ovarian = system: IGROV1 ovarian
SNB-75 CNS = system: SNB-75 CNS
MALME-3M melanoma = system: MALME-3M melanoma
HL-60(TB) leukemia = system: HL-60(TB) leukemia
U251 CNS = system: U251 CNS
SR leukemia = system: SR leukemia
DLD-1 colon = system: DLD-1 colon
OVCAR-5 ovarian = system: OVCAR-5 ovarian
M19-MEL melanoma = system: M19-MEL melanoma
M14 melanoma = system: M14 melanoma
OVCAR-8 ovarian = system: OVCAR-8 ovarian
SK-OV-3 ovarian = system: SK-OV-3 ovarian
SF-295 CNS = system: SF-295 CNS
SNB-78 CNS = system: SNB-78 CNS
MOLT-4 leukemia = system: MOLT-4 leukemia
NCI-H460 lung = system: NCI-H460 lung
NCI-H23 lung = system: NCI-H23 lung
SF-539 CNS = system: SF-539 CNS
UACC-62 melanoma = system: UACC-62 melanoma

O=CN/C=C\c1cc(O)ccc1O gave a TGI (COLO 205 colon) of 29.5 µM, a TGI (SF-268 CNS) of over 57.8 µM and a TGI (SK-MEL-28 melanoma) of over 64.9 µM. It also gave a TGI (DMS 273 small cell lung) of over 41.1 µM, a TGI (A549 NSCLC) of over 100 µM and a TGI (EKVX NSCLC) of 32.9 µM. The TGI (HCT-116 colon) was 25.2 µM, the TGI (SK-MEL-5 melanoma) was over 50.9 µM and the TGI (KM12 colon) was over 100 µM. For the same compound, the TGI (RPMI-8226 leukemia) was 44.6 µM, the TGI (SN12C renal) was 28.9 µM and the TGI (K-562 leukemia) was over 100 µM. For the same compound, the TGI (LXFL 529 NSCLC) was 22.8 µM, the TGI (786-0 renal) was 31.1 µM and the TGI (OVCAR-3 ovarian) was 25 µM. For the same compound, the TGI (HOP-92 NSCLC) was 28 µM, the TGI (UACC-257 melanoma) was 19.2 µM and the TGI (OVCAR-4 ovarian) was 26.8 µM. The TGI (A498 renal) was over 100 µM, the TGI (HCC-2998 colon) was over 100 µM and the TGI (SW-620 colon) was 25.6 µM. It also gave a TGI (ACHN renal) of 28.2 µM, a TGI (NCI-H522 lung) of 10 µM and a TGI (HOP-18 NSCLC) of 30.7 µM. For the same compound, the TGI (LOX IMVI melanoma) was 22.7 µM, the TGI (CAKI-1 renal) was 26.4 µM and the TGI (SK-MEL-2 melanoma) was over 100 µM. The TGI (CCRF-CEM leukemia) was over 100 µM, the TGI (DMS 114 small cell lung) was 52.3 µM and the TGI (HCT-15 colon) was 23.7 µM. It also gave a TGI (HOP-62 NSCLC) of 60.2 µM, a TGI (UO-31 renal) of 29.1 µM and a TGI (XF 498 CNS) of 28.8 µM. It also gave a TGI (KM20L2 colon) of over 62.4 µM, a TGI (SNB-19 CNS) of over 100 µM and a TGI (TK-10 renal) of over 64.7 µM. For the same compound, the TGI (HT29 colon) was over 31.6 µM, the TGI (NCI-H226 lung) was over 100 µM and the TGI (IGROV1 ovarian) was over 58.4 µM. It also gave a TGI (SNB-75 CNS) of over 100 µM, a TGI (MALME-3M melanoma) of 28.9 µM and a TGI (HL-60(TB) leukemia) of 47.8 µM. For the same compound, the TGI (U251 CNS) was over 81 µM, the TGI (SR leukemia) was 21.3 µM and the TGI (DLD-1 colon) was 31.6 µM. It also gave a TGI (OVCAR-5 ovarian) of over 100 µM, a TGI (M19-MEL melanoma) of 40.2 µM and a TGI (M14 melanoma) of over 50.3 µM. The TGI (OVCAR-8 ovarian) was 32.1 µM, the TGI (SK-OV-3 ovarian) was over 100 µM and the TGI (SF-295 CNS) was over 100 µM. The TGI (SNB-78 CNS) was over 100 µM, the TGI (MOLT-4 leukemia) was 70.6 µM and the TGI (NCI-H460 lung) was over 56.2 µM. The TGI (NCI-H23 lung) was over 56.1 µM, the TGI (SF-539 CNS) was over 49.6 µM and the TGI (UACC-62 melanoma) was 17.5 µM.
